Data: patent US6573267B2, “Useful aroyl aminoacyl pyrrole compounds” (Ortho-McNeil Pharmaceutical, Inc., priority 2000, dated 2003)
Structures can show the parent of a compound that is named as a salt. Where two headings read alike, the source gives them in different places.

Tests used:
[1] = test system: toxic extensor seizure (maximal electroshock test); assay: Mouse anticonvulsant model, maximal electroshock test (MES); format: in vivo; conditions: for MES ED50 (Active @ 30): active at dose 30; for MES ED50 (Active @ 100): active at dose 100; for ED50: ip
Method: Procedure for Testing in Mouse Anticonvulsant Model
The compounds of Formula (I) and Formula (II) are useful as anticonvulsant agents. The anticonvulsant activity of the subject compounds was determined using a standard “maximal electroshock test” (MES). In this test, activity is indicated by a block of the toxic extensor seizure, as described by Swinyard, et al., in J. PharmacoL Exptl. Therap., 106, 319 (1952). A more recent description of current anticonvulsant drug screening is given in Swinyard, et al., in Epilepsia, 19, 409 (1978).
The anticonvulsant activity of compounds of this invention tested according to the Swinyard (1952) method are shown in Table 3, having values for the Mouse MES Model in ED50 per dose (in mg/kg, i.p.).

[2] = test system: mechanical allodynia (paw withdrawal threshold); assay: Neuropathic pain model (Chung Model), spinal nerve ligation, mechanical allodynia with von Frey hairs; format: in vivo, Sprague-Dawley rats; conditions: for inhibition in vivo at 30 mg/kg: read-out: % MPE
Method: Procedure for Testing in a Neuropathic Pain Model
The compounds of the present invention are useful in the treatment of neuropathic pain. The use of the compounds in treating neuropathic pain was determined using an animal model. This model was developed and first described by S. H. Chung and J. M. Chung, An Experimental Model for Peripheral Neuropathy Produced by Segmental Spinal Nerve Ligation in the Rat, Pain, 1992, 50, 355-363 (referred to hereinafter as the “Chung Model”).
Male Sprague-Dawley rats, weighing approximately 200 g each were anesthetized with isoflurane. The spinal nerve at the level of L5 was exposed through an incision just left of the dorsal midline and tightly ligated with 6-0 silk. At various times after surgery, animals were tested for mechanical allodynia with von Frey hairs (monofilaments which are calibrated to bend under a certain amount of pressure, ranging from 0.41 to 15.1 g). In order to calculate a paw withdrawal threshold (PWT), tactile allodynia was measured by recording the pressure at which the affected paw was withdrawn from graded stimuli according to the procedure of S. R. Chaplan, J. W. Pogrel, T. L. Yaksh, Role of Voltage-Dependent Calcium Channel Subtypes in Experimental Tactile Allodynia, J. Pharmacol. Exp. Ther. 1994, 269,1117-1123. Normal rats can withstand at least 15 g of pressure without responding. Operated rats, however, can respond to as little as 0.25 g of pressure. The surgery was deemed successful if the animal responded with a PWT of less than 4 g of pressure applied to the affected paw.
The sham operation consisted of a similar surgery; the spinal nerve was visualized without being ligated. […] The results of the assay were expressed as percent of the maximum possible effect (% MPE), calculated as the PWT at the time of testing minus the baseline PWT divided by the maximum PWT (15 g) minus the baseline PWT times 100.
The compounds having Formula (I) and Formula (II) were tested for activity against neuropathic pain by being dissolved or suspended in either water or hydroxypropyl methylcellulose, respectively. Postoperative animals between 14 to 42 days were fasted overnight prior to dosing. Animals were orally dosed and dosage volumes were calculated on a 4 mL/kg basis. The screening dose employed was 30 mg/kg.

[3] = Chung Model rat, antiallodynic activity, oral screening dose 30 mg/kg

Row | Compound | melting point | inhibition in vivo at 30 mg/kg [2, 3] [%] | other results
1 | CCN(CC)CC(=O)c1cc(C(=O)c2cccc3ccccc23)cn1C [Cpd 3, 1-[4-(1-Naphthalenoyl)-1-methyl-1H-pyrrol-2-yl]-2-(N,N-diethylamino)ethanone] |  |  | MES ED50 (Active @ 30) ([1]; i.p.): Active @ 30; inhibition in vivo at 30 mg/kg ([2]; Rattus norvegicus, po): 87%
2 | Cn1cc(C(=O)c2cccc3ccccc23)cc1C(=O)CN1CCCCC1 [Cpd 4, 1-[4-(1-Naphthalenoyl)-1-methyl-1H-pyrrol-2-yl]-2-(1-piperidinyl)ethanone] |  |  | MES ED50 (Active @ 30) ([1]; i.p.): Active @ 30; inhibition in vivo at 30 mg/kg ([2]; Rattus norvegicus, po): 12%
3 | CCN(CC)CC(=O)c1cc(-c2ccc(Cl)s2)n(C)c1 [Cpd 6, 1-[5-(5-Chlorothieno-2-yl)-1-methyl-1H-pyrrol-3-yl]-2-(N,N-diethylamino)ethanone] |  |  | MES ED50 (Active @ 30) ([1]; i.p.): Active @ 30; % MPE [2, 3]: 54 % MPE
4 | CCN(CC)CC(=O)c1cc(C(=O)c2cccnc2)n(C)c1 (as salt: HCl) [Cpd 12, 1-[5-(3-Pyridinoyl)-1-methyl-1H-pyrrol-3-yl]-2-(N,N-diethylamino)ethanone] | 158 to 160 °C (dec.) |  | 
5 | CC(N(C)C)n1cc(C(=O)c2ccc3ccccc3c2)cc1C(=O)CN1CCCCC1 (stereo not shown) (as salt: HCl) [Cpd 5, 1-[4-(2-Naphthalenoyl)-1-(N,N-dimethylaminoeth-2-yl)-1H-pyrrol-2-yl]-2-(1-piperidinyl)ethanone] | 239 to 242 °C |  | 
6 | Cn1cc(C(=O)c2cccc3ccccc23)cc1C(=O)CN1CCCCC1 (as salt: HCl) [Cpd 4, 1-[4-(1-Naphthalenoyl)-1-methyl-1H-pyrrol-2-yl]-2-(1-piperidinyl)ethanone] | 246 to 248 °C |  | 
7 | Cn1cc(C(=O)CCN2CCCCC2)cc1C(=O)c1cccc2ccccc12 [Cpd 8, 1-[5-(1-Naphthalenoyl)-1-methyl-1H-pyrrol-3-yl]-3-(1-piperidinyl)-1-propanone] |  |  | MES ED50 (Active @ 30) ([1]; i.p.): Active @ 30; inhibition in vivo at 30 mg/kg ([2]; Rattus norvegicus, po): 25%
8 | CCCOn1cc(C(=O)CN(CC)CC)cc1C(=O)c1ccc(Cl)cc1 [Cpd 9, 1-[5-(4-Chlorobenzoyl)-1-ethylmethoxy-1H-pyrrol-3-yl]2-[N,N-diethylamino]ethanone] |  | 5 | MES ED50 (Active @ 100) ([1]; i.p.): Active @ 100
9 | CCN(CC)CC(=O)c1cc(C(=O)c2cccs2)n(C)c1 (as salt: salt) [Cpd 10, 1-[5-(2-Thienoyl)-1-methyl-1H-pyrrol-3-yl]-2-(N,N-diethylamino)ethanone] | 153 to 155 °C |  | 
10 | Cn1cc(C(=O)CCN2CCCCC2)cc1C(=O)c1cccc2ccccc12 (as salt: HCl) [Cpd 8, 1-[5-(1-Naphthalenoyl)-1-methyl-1H-pyrrol-3-yl]-3-(1-piperidinyl)-1-propanone] | 141 to 143 °C |  | 
11 | CCN(CC)CC(=O)c1cc(C(=O)c2cccs2)cn1C [Cpd 2, 1-[4-(2-Thienoyl)-1-methyl-1H-pyrrol-2-yl]-2-(N,N-diethylamino)ethanone] |  | 14 | MES ED50 (Active @ 30) ([1]; i.p.): Active @ 30
12 | CN1CCN(CC(=O)c2cc(C(=O)c3ccc(Cl)cc3)n(C)c2)CC1 [Cpd 7, 1-[5-(4-Chlorobenzoyl)-1-methyl-1H-pyrrol-3-yl]-2-(4-methyl-1-piperazinyl)ethanone] |  | 21 | ED50 [1]: 16.6 mg/kg
13 | CCN(CC)CC(=O)c1cc(C(=O)c2cccs2)n(C)c1 [Cpd 10, 1-[5-(2-Thienoyl)-1-methyl-1H-pyrrol-3-yl]-2-(N,N-diethylamino)ethanone] |  | 0 | MES ED50 (Active @ 100) ([1]; i.p.): Active @ 100
14 | Cn1cc(C(=O)c2ccc3ccccc3c2)cc1C(=O)CN1CCCCC1 (as salt: HCl) [Cpd 17, 1-[4-(2-Naphthalenoyl)-1-methyl-1H-pyrrol-2-yl]-2-(1-piperidinyl)ethanone] | 246 to 248 °C |  | 
15 | CCN(CC)CC(=O)c1cc(C(=O)c2ccc3ccccc3c2)cn1C [Cpd 1, 1-[4-(2-Naphthalenoyl)-1-methyl-1H-pyrrol-2-yl]-2-(N,N-diethylamino)ethanone] |  | 80 | ED50 [1]: 11 mg/kg
16 | CCSCn1cc(C(=O)CN(CC)CC)cc1C(=O)c1ccccc1Cl (as salt: HCl) [Cpd 16, 1-[5-(2-Chlorobenzoyl)-1-ethylthiomethyl-1H-pyrrol-3-yl]-2-(N,N-diethylamino)ethanone] | 157 to 158 °C |  | 
17 | CCCOn1cc(C(=O)CN(CC)CC)cc1C(=O)c1ccc(Cl)cc1 (as salt: HCl) [Cpd 9, 1-[5-(4-Chlorobenzoyl)-1-ethylmethoxy-1H-pyrrol-3-yl]2-[N,N-diethylamino]ethanone] | 149 to 151 °C |  | 
18 | CCN(CC)CC(=O)c1cc(C(=O)c2cccc3ccccc23)cn1C (as salt: HCl) [Cpd 3, 1-[4-(1-Naphthalenoyl)-1-methyl-1H-pyrrol-2-yl]-2-(N,N-diethylamino)ethanone] | 222 to 224 °C |  | 
19 | CCN(CC)CC(=O)c1cc(C(=O)c2ccc3ccccc3c2)cn1C (as salt: fumarate) [Cpd 1, 1-[4-(2-Naphthalenoyl)-1-methyl-1H-pyrrol-2-yl]-2-(N,N-diethylamino)ethanone] | 130 to 132 °C |  | 
20 | CCC(N(C)C)n1cc(C(=O)CN2CCCCC2)cc1C(=O)c1ccc(Cl)cc1 (stereo not shown) (as salt: HCl) [Cpd 14, 1-[5-(4-Chlorobenzoyl)-1-(N,N-dimethylaminoprop-3-yl) -1H-pyrrol-3-yl]-2-(1-piperidinyl)ethanone] | 138 to 141 °C |  | 
21 | CCN(CC)CC(=O)c1cc(C(=O)c2cccs2)cn1C (as salt: HCl) [Cpd 2, 1-[4-(2-Thienoyl)-1-methyl-1H-pyrrol-2-yl]-2-(N,N-diethylamino)ethanone] | 196 to 198 °C |  | 
22 | CCN(C)CC(=O)c1cc(C(=O)c2ccc3ccccc3c2)n(C)c1 [Cpd 15, 1-[5-(2-Naphthalenoyl)-1-methyl-1H-pyrrol-3-yl]-2-(N,N-ethylmethylamine)ethanone] |  |  | MES ED50 (Active @ 30) ([1]; i.p.): Active @ 30; % MPE [2, 3]: 40 % MPE
23 | Cn1cc(C(=O)CN2CCCCC2)cc1C(=O)c1cccs1 [Cpd 11, 1-[5-(2-Thienoyl)-1-methyl-1H-pyrrol-3-yl]-2-(1-piperidinyl)ethanone] | 178 to 179 °C | 34 | MES ED50 (Active @ 30) ([1]; i.p.): Active @ 30
24 | CCN(CC)CC(=O)c1cc(C(=O)c2ccc3ccccc3c2)n(C)c1 [Cpd 13, 1-[5-(2-Naphthalenoyl)-1-methyl-1H-pyrrol-3-yl]-2-(N,N-diethylamino)ethanone] |  | 80 | MES ED50 (Active @ 300) ([1]; i.p., active at dose 300): Active @ 300
25 | CCN(CC)CC(=O)c1cc(C(=O)c2ccc3ccccc3c2)n(C)c1 (as salt: HCl) [Cpd 13, 1-[5-(2-Naphthalenoyl)-1-methyl-1H-pyrrol-3-yl]-2-(N,N-diethylamino)ethanone] | 195 to 196 °C |  | 
26 | CCN(CC)CC(=O)c1cc(C(=O)c2cccnc2)n(C)c1 [Cpd 12, 1-[5-(3-Pyridinoyl)-1-methyl-1H-pyrrol-3-yl]-2-(N,N-diethylamino)ethanone] |  | 4 | MES ED50 (Active @ 100) ([1]; i.p.): Active @ 100
